Read-outs that look alike come from different tables or passages of the source.
Tests used:
Assay type in all cases: cell-based
[1] = system: OVCAR-3; assay: NCI60 5-dose screen, OVCAR-3; conditions: Homo sapiens, ovarian cancer, Fig 1D, read-out: Log10 GI50 (OVCAR-3) (converted)
Protocol: (§1) The screening methodology used in the NCI60 Cell 5-Doses screen is described in detail at https://dtp.cancer.gov/discovery_development/nci-60/methodology.htm. Briefly, cells are seeded in 96 well plates at an appropriate density and incubated for 1 day. After 1 day, some of the plates are processed to determine a time zero density. To the remaining plates, compounds are added over a 5-log M concentration range (1 log dilutions from 10^-4M to 10^-8M). Plates are incubated for two additional days, then fixed and stained with sulforhodamine B. Growth inhibition is calculated relative to cells without drug treatment and the time zero control. The GI50 is the concentration of a compound that causes 50% growth inhibition, relative to the no drug control.

[2] = system: NCI-60 Human Tumor Cell Lines; assay: NCI-60 Human Tumor Cell Lines Screen (whole panel); conditions: NCI-60 panel; for GI50: Homo sapiens, mean across all cell lines
Protocol: as §1

[3] = system: HCT-15; assay: NCI60 5-dose screen, HCT-15; conditions: Homo sapiens, colon cancer, Fig 1D, read-out: Log10 GI50 (HCT-15) (converted)
Protocol: as §1

[4] = system: RPMI-8226; assay: NCI60 5-dose screen, RPMI-8226; conditions: Homo sapiens, leukemia, Fig 1D, read-out: Log10 GI50 (RPMI-8226) (converted)
Protocol: as §1

[5] = system: NCI-H522; assay: NCI60 5-dose screen, NCI-H522; conditions: Homo sapiens, non-small cell lung cancer, Fig 1D, read-out: Log10 GI50 (NCI-H522) (converted)
Protocol: as §1

[6] = system: Jurkat cells; assay: 3-day MTS cell viability assay, Jurkat; conditions: Homo sapiens, 72 hours, Fig 1C
Protocol: (§2) All cancer cell lines (HT-29: colorectal adenocarcinoma, HCT-116: colorectal carcinoma, A549: lung epithelial carcinoma, PC3: prostate adenocarcinoma, Jurkat: acute T-cell leukemia, BC-1: primary effusion lymphoma) and the normal human embryonal lung fibroblast cell line MRC-5 were acquired from the American Type Culture Collection (ATCC). All cell lines were cultured as recommended by the suppliers. Culture media were purchased from Gibco (Thermo Fisher Scientific) and supplemented with 10 to 20% fetal bovine serum (HyClone, GE Healthcare Life Sciences) and 20–25 μg/mL gentamicin (Gibco, Thermo Fisher Scientific). […]
(§3) Cell viability in cancer cell lines treated with compound was measured in a 3-day MTS cell proliferation assay using the CellTiter 96 AQueous Non-Radioactive Cell Proliferation Assay reagent (Promega) according to the manufacturer’s instructions. Absorbance was read at 490 nm on a SaFire II microplate reader (Tecan). CC50 values were calculated by fitting the obtained MTS cell viability data in GraphPad Prism using a 4-parameter log–based fit for inhibitors. Apoptosis induction and cell death upon compound treatment in PBMC was measured using the Alexa Fluor 488 Annexin V/Dead Cell Apoptosis Kit (Thermo Fisher Scientific), with readout on a FACSCanto II flow cytometer (BD Biosciences). […] The compounds were evaluated in duplo in two independent experiments.

[7] = system: SK-MEL-2; assay: NCI60 5-dose screen, SK-MEL-2; conditions: Homo sapiens, melanoma, Fig 1D, read-out: Log10 GI50 (SK-MEL-2) (converted)
Protocol: as §1

[8] = system: BC-1 cells; assay: 3-day MTS cell viability assay, BC-1; conditions: Homo sapiens, BC1, 72 hours, Fig 1C
Protocol: as §2, §3

[9] = system: A549/ATCC; assay: NCI60 5-dose screen, A549/ATCC; conditions: Homo sapiens, non-small cell lung cancer, Fig 1D, read-out: Log10 GI50 (A549/ATCC) (converted)
Protocol: as §1

[10] = system: MDA-MB-231/ATCC; assay: NCI60 5-dose screen, MDA-MB-231/ATCC; conditions: Homo sapiens, breast cancer, Fig 1D, read-out: Log10 GI50 (MDA-MB-231/ATCC) (converted)
Protocol: as §1

[11] = system: 786-0; assay: NCI60 5-dose screen, 786-0; conditions: Homo sapiens, renal cancer, Fig 1D, read-out: Log10 GI50 (786-0) (converted)
Protocol: as §1

[12] = system: HT29; assay: NCI60 5-dose screen, HT29; conditions: Homo sapiens, HT-29; colon cancer; Fig 1D; read-out: Log10 GI50 (HT29) (converted)
Protocol: as §1

[13] = system: HT-29 cells; assay: Clonogenic assay on HT-29 cells; conditions: Homo sapiens, 144 h; HT-29, 6 days of incubation, colonies counted; read-out: IC50 (HT-29 cell proliferation, clonogenic assay)
Protocol: All experiments were performed under standard cell culture conditions at 37°C and 5% CO2. Colorectal adenocarcinoma HT-29 cells were seeded at 300 cells/well in triplicate in six well microtiter plates in RPMI-1640 medium supplemented with 10% fetal bovine serum and 25 μg/ml gentamicin (complete medium). Twenty-four hours later, the compounds were added in complete medium in final concentrations ranging from 10 μM to 0.1 nM. Cells were allowed to grow until they formed colonies for 6 days. The colonies were fixed with 100% methanol, stained with Trypan blue 0.4% in saline and the number of colonies was counted. The number of colonies in the treated wells was normalized to the number obtained in the untreated wells. Three biological independent experiments were performed for each compound.

[14] = system: KM12; assay: NCI60 5-dose screen, KM12; conditions: Homo sapiens, colon cancer, Fig 1D, read-out: Log10 GI50 (KM12) (converted)
Protocol: as §1

[15] = system: NCI-H460; assay: NCI60 5-dose screen, NCI-H460; conditions: Homo sapiens, non-small cell lung cancer, Fig 1D, read-out: Log10 GI50 (NCI-H460) (converted)
Protocol: as §1

[16] = system: PC-3; assay: NCI60 5-dose screen, PC-3; conditions: Homo sapiens, prostate cancer, Fig 1D, read-out: Log10 GI50 (PC-3) (converted)
Protocol: as §1

[17] = system: SK-MEL-28; assay: NCI60 5-dose screen, SK-MEL-28; conditions: Homo sapiens, melanoma, Fig 1D, read-out: Log10 GI50 (SK-MEL-28) (converted)
Protocol: as §1

[18] = Fig 1D, read-out: mean GI50 (log10) (converted)
[19] = read-out: mean GI50 across the panel

SMILES | GI50 [1] [nM] | GI50 [2, 18] [nM] | GI50 [2, 19] [nM] | GI50 [3] [nM] | GI50 [4] [nM] | GI50 [5] [nM] | IC50 [6] [nM] | GI50 [7] [nM] | IC50 [8] [nM] | GI50 [9] [nM] | GI50 [10] [nM] | GI50 [11] [nM] | GI50 [12] [nM] | IC50 [13] [nM] | GI50 [14] [nM] | GI50 [15] [nM] | GI50 [16] [nM] | GI50 [17] [nM] | number of cell lines with GI50 lower than 10 nM ([2]; out of the cell lines tested)
Cc1cc(C)cc(Nc2ccc([N+](=O)[O-])c(NCCN3CCOCC3)n2)c1 [Compound 4AZA2891, 6-(3,5-dimethylanilino)-2-(2-morpholinoethylamino)-3-nitropyridine] | < 10 | 35.5 | 35.5 | < 10 | 36.3 | < 10 | 19.8 | 34.7 | 8.5 | 20 | 34.7 | 52.5 | 18.6 | 5.4 | < 10 | 17.4 | 10.5 | 2750 | –
Cc1ccnc(Nc2ccc([N+](=O)[O-])c(NCCN3CCOCC3)n2)c1 [Compound 4AZA2996, N^6-(4-methylpyridin-2-yl)-N^2-(2-morpholinoethyl)-3-nitropyridine-2,6-diamine] | < 10 | 21.9 | 21.9 | < 10 | 26.9 | < 10 | 14 | 30.2 | 5.9 | < 10 | 38 | 12.9 | < 10 | 4 | < 10 | < 10 | < 10 | 12600 | 31 of the 50

Source: paper PMC11542830, “3-nitropyridine analogues as novel microtubule-targeting agents” (PLOS ONE, 2024)
